Experimental data: US10098883B2, “(Aza)pyridopyrazolopyrimidinones and indazolopyrimidinones and their use” (BAYER PHARMA AKTIENGESELLSCHAFT, priority 2013, dated 2018)
Structures can show the parent of a compound that is named as a salt.

Test system: clot lysis (fibrinolysis) in human citrated plasma, tPA-induced
Assay: Plasma-based clot lysis assay (5%)
Type: biochemical
Settings: diluted human citrated plasma (platelet-poor, 5%), fibrinogen 3 μM, CaCl2 10 mM, tPA 0.2 nM, 37° C., OD 405 nm
Experimental: B-2. Plasma-based Clot Lysis Assay (5%)
The clot-lysis test system configures the kinetics of clot formation and degradation in vitro and allows quantifying modulation of the process by selected test compounds.
The test compounds were dissolved in 1% acetic acid and further complemented with an equal volume of DMSO. The resulting stock solutions were serially diluted in 0.5% acetic acid/50% DMSO. 1 μL aliquots of these solutions were placed into 384 well microplates (Greiner, black, transparent bottom), followed by 30 μL of diluted human citrated plasma (platelet-poor, final concentration: 5%; supplemented with fibrinogen, final concentration: 3 μM; dilution buffer: 20 mM HEPES, 150 mM NaCl, 0.01% Brij (pH 7)). The reactions were started by addition of […] of CaCl2 (final concentration: 10 mM), and tPA (tissue plasminogen activator, final concentration: 0.2 nM) in dilution buffer, followed by an additional volume of 20 μL dilution buffer for improved mixing. The reactions were incubated at 37° C. Clot formation and degradation was monitored spectrophotometrically by kinetic optical density measurements at 405 nm. IC50 values were determined by comparing the resulting time courses with the time course of a blank control reaction.

| SMILES | IC50 | IC50 (hydrochloride) |
| --- | --- | --- |
| O=c1cc(C2CCNCC2)n2nc3nc(-c4ccc(F)cc4)cc(C(F)(F)F)c3c2[nH]1 [Example 42, 8-(4-Fluorophenyl)-4-(piperidin-4-yl)-10-(trifluoromethyl)pyrido[2′,3′:3,4]pyrazolo[1,5-a]pyrimidin-2(1H)-one hydrochloride] | 110 nM |  |
| O=c1cc(C2CCNCC2)n2nc3cncc(Br)c3c2[nH]1 [Example 43, 10-Bromo-4-(piperidin-4-yl)pyrido[3′,4′:3,4]pyrazolo[1,5-a]pyrimidin-2(1H)-one hydrochloride] | 100 nM |  |
| O=c1cc(C2CCNCC2)n2nc3nc(-c4ccccc4)ccc3c2[nH]1 [Example 44, 8-Phenyl-4-(piperidin-4-yl)pyrido[2′,3′:3,4]pyrazolo[1,5-a]pyrimidin-2(1H)-one hydrochloride] | 48 nM |  |
| O=c1cc(C2CCNCC2)n2nc3ncc(-c4ccccc4)cc3c2[nH]1 [Example 45, 9-Phenyl-4-(piperidin-4-yl)pyrido[2′,3′:3,4]pyrazolo[1,5-a]pyrimidin-2(1H)-one hydrochloride] | 37 nM |  |
| O=c1cc(C2CCNCC2)n2nc3nccc(-c4ccccc4)c3c2[nH]1 [Example 46, 10-Phenyl-4-(piperidin-4-yl)pyrido[2′,3′:3,4]pyrazolo[1,5-a]pyrimidin-2(1H)-one hydrochloride] | 17 nM |  |
| Cc1ccnc2nn3c(C4CCNCC4)cc(=O)[nH]c3c12 [Example 47, 10-methyl-4-(piperidin-4-yl)pyrido[2′,3′:3,4]pyrazolo[1,5-a]pyrimidin-2(1H)-one hydrochloride] | 24 nM |  |
| O=c1cc(C2CCNCC2)n2nc3ccc(I)cc3c2[nH]1 [Example 48, 9-Iodo-4-(piperidin-4-yl)pyrimido[1,2-b]indazol-2(1H)-one hydrochloride] | 36 nM |  |
| O=c1cc(C2CCNCC2)n2nc3ccncc3c2[nH]1 [Example 49, 4-(Piperidin-4-yl)pyrido[4′,3′:3,4]pyrazolo[1,5-a]pyrimidin-2(1H)-one] | 36 nM |  |
| C[C@H]1C[C@H](c2cc(=O)[nH]c3c4c(Br)cccc4nn23)CCN1 [Example 50, (−)-trans-10-Bromo-4-(2-methylpiperidin-4-yl)pyrimido[1,2-b]indazol-2(1H)-one hydrochloride] | 14 nM |  |
| C[C@H]1C[C@H](c2cc(=O)[nH]c3c4c(-c5ccccc5)ccnc4nn23)CCN1 [Example 51, (−)-trans-4-(2-Methylpiperidin-4-yl)-10-phenylpyrido[2′,3′:3,4]pyrazolo[1,5-a]pyrimidin-2(1H)-one hydrochloride] | 15 nM |  |
| CCOc1cccc2nn3c([C@@H]4CCN[C@@H](C)C4)cc(=O)[nH]c3c12 [Example 52, (−)-trans-10-Ethoxy-4-(2-methylpiperidin-4-yl)pyrimido[1,2-b]indazol-2(1H)-one hydrochloride] | 13 nM |  |
| N#Cc1cccc2nn3c(C4CCNCC4)cc(=O)[nH]c3c12 [Example 53, 2-Oxo-4-(piperidin-4-yl)-1,2-dihydropyrimido[1,2-b]indazole-10-carbonitrile hydrochloride] |  | 10 nM |
| COc1ccc(-c2cccc3nn4c(C5CCNCC5)cc(=O)[nH]c4c23)cc1 [Example 54, 10-(4-Methoxyphenyl)-4-(piperidin-4-yl)pyrimido[1,2-b]indazol-2(1H)-one hydrochloride] | 15 nM |  |
| O=c1cc(C2CCNCC2)n2nc3cccc(-c4ccc(C(F)(F)F)cc4)c3c2[nH]1 [Example 55, 4-(Piperidin-4-yl)-10-[4-(trifluoromethyl)phenyl]pyrimido[1,2-b]indazol-2(1H)-one hydrochloride] | 14 nM |  |
| O=c1cc(C2CCNCC2)n2nc3cccc(-c4ccccc4)c3c2[nH]1 [Example 56, 10-Phenyl-4-(piperidin-4-yl)pyrimido[1,2-b]indazol-2(1H)-one hydrochloride] | 14 nM |  |
| O=c1cc(C2CCNCC2)n2nc3cccc(-c4ccccc4F)c3c2[nH]1 [Example 57, 10-(2-Fluorophenyl)-4-(piperidin-4-yl)pyrimido[1,2-b]indazol-2(1H)-one hydrochloride] |  | 13 nM |
| O=c1cc(C2CCNCC2)n2nc3cccc(-c4cccnc4)c3c2[nH]1 [Example 58, 4-(Piperidin-4-yl)-10-(pyridin-3-yl)pyrimido[1,2-b]indazol-2(1H)-one hydrochloride] | 15 nM |  |
| O=c1cc(C2CCNCC2)n2nc3cccc(-c4ccncc4)c3c2[nH]1 [Example 59, 4-(Piperidin-4-yl)-10-(pyridin-4-yl)pyrimido[1,2-b]indazol-2(1H)-one hydrochloride] | 16 nM |  |
| O=c1cc(C2CCNCC2)n2nc3cccc(Br)c3c2[nH]1 [Example 60, 10-Bromo-4-(piperidin-4-yl)pyrimido[1,2-b]indazol-2(1H)-one hydrochloride] |  | 14 nM |
| O=c1cc(C2CCNCC2)n2nc3cccc(C4CC4)c3c2[nH]1 [Example 61, 10-Cyclopropyl-4-(piperidin-4-yl)pyrimido[1,2-b]indazol-2(1H)-one hydrochloride] | 24 nM |  |
| CC(C)c1cccc2nn3c(C4CCNCC4)cc(=O)[nH]c3c12 [Example 62, 10-Isopropyl-4-(piperidin-4-yl)pyrimido[1,2-b]indazol-2(1H)-one hydrochloride] | 18 nM |  |
| O=c1cc(C2CCNCC2)n2nc3cccc(C4CCCC4)c3c2[nH]1 [Example 63, 10-Cyclopentyl-4-(piperidin-4-yl)pyrimido[1,2-b]indazol-2(1H)-one hydrochloride] | 13 nM |  |
| O=c1cc(C2CCNCC2)n2nc3cccc(-c4ccccc4Cl)c3c2[nH]1 [Example 64, 10-(2-Chlorophenyl)-4-(piperidin-4-yl)pyrimido[1,2-b]indazol-2(1H)-one hydrochloride] | 19 nM |  |
| COc1ccccc1-c1cccc2nn3c(C4CCNCC4)cc(=O)[nH]c3c12 [Example 65, 10-(2-Methoxyphenyl)-4-(piperidin-4-yl)pyrimido[1,2-b]indazol-2(1H)-one hydrochloride] | 25 nM |  |
| O=c1cc(C2CCNCC2)n2nc3cccc(Cl)c3c2[nH]1 [Example 66, 10-Chloro-4-(piperidin-4-yl)pyrimido[1,2-b]indazol-2(1H)-one] | 15 nM |  |
| O=c1cc(C2CCNCC2)n2nc3cccc(-c4ccccc4C(F)(F)F)c3c2[nH]1 [Example 67, 4-(Piperidin-4-yl)-10-[2-(trifluoromethyl)phenyl]pyrimido[1,2-b]indazol-2(1H)-one hydrochloride] | 13 nM |  |
| C[C@H]1C[C@H](c2cc(=O)[nH]c3c4c(Cl)cccc4nn23)CCN1 [Example 68, (−)-trans-10-Chloro-4-(2-methylpiperidin-4-yl)pyrimido[1,2-b]indazol-2(1H)-one hydrochloride] |  | 25 nM |
| Cc1ccc2nn3c(C4CCNCC4)cc(=O)[nH]c3c2c1Cl [Example 69, 10-Chloro-9-methyl-4-(piperidin-4-yl)pyrimido[1,2-b]indazol-2(1H)-one hydrochloride] | 20 nM |  |
| O=c1cc(C2CCNCC2)n2nc3ccc(F)c(Br)c3c2[nH]1 [Example 70, 10-Bromo-9-fluoro-4-(piperidin-4-yl)pyrimido[1,2-b]indazol-2(1H)-one hydrochloride] | 35 nM |  |
| O=c1cc(C2CCNCC2)n2nc3c(F)ccc(Br)c3c2[nH]1 [Example 71, 10-Bromo-7-fluoro-4-(piperidin-4-yl)pyrimido[1,2-b]indazol-2(1H)-one hydrochloride] | 15 nM |  |
